# Measurements as given in BindingDB's records for patent US20240043440 (Case Western Reserve University, 2024).
# Target: T1, 15-hydroxyprostaglandin dehydrogenase [NAD(+)] (Homo sapiens, UniProt P15428)
# T1 sequence (P15428 whole entry): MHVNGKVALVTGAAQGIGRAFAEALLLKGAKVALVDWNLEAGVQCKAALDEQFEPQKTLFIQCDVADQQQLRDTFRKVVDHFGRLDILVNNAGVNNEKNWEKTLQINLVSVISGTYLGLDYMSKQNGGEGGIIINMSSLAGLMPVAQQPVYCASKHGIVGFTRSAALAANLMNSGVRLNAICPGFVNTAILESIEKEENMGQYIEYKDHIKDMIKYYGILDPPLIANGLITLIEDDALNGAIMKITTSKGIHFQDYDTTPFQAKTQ
# Experiment: In vitro Assay (5 nM)
# Procedure: Each compound for inhibiting enzymatic activity of recombinant 15-PGDH (5 nM) in an in vitro assay.
row,Compound,IC50 [nM]
1,"CCCC[S+]([O-])c1sc2nc(-c3nccs3)cc(-c3cnccn3)c2c1N (configuration not stated) [US20240043440, Example 1]",2.7
2,"CCCC[S+]([O-])c1sc2nc(-c3nccs3)cc(-c3ncccn3)c2c1N (configuration not stated) [US20240043440, Example 8]",2.6
3,"CCCC[S+]([O-])c1sc2nc(-c3cccs3)cc(-c3ccccc3)c2c1C (configuration not stated) [US20240043440, Example 10]",7.1
4,"CCCC[S+]([O-])c1cc2c(-c3ccccc3)cc(-c3cccs3)nc2s1 (configuration not stated) [US20240043440, Example 11]",24.7
5,"CCCC[S+]([O-])c1sc2nc(-c3nccs3)nc(-c3cnc(C)n3C)c2c1N (configuration not stated) [US20240043440, Example 15]",3.7
6,"CCCC[S+]([O-])c1sc2nc(-c3cccnc3)cc(-c3ccccc3)c2c1N (configuration not stated) [US20240043440, Example 19]",2.4
7,"CCCC[S+]([O-])c1sc2nc(-c3cncnc3)cc(-c3ccccc3)c2c1N (configuration not stated) [US20240043440, Example 20]",3.2
8,"CCCC[S+]([O-])c1sc2nc(-c3cnc(N)nc3)cc(-c3ccccc3)c2c1N (configuration not stated) [US20240043440, Example 21]",4
9,"CCCC[S+]([O-])c1sc2nc(-c3ccc(F)nc3)cc(-c3ccccc3)c2c1N (configuration not stated) [US20240043440, Example 22]",4
10,"CCCC[S+]([O-])c1sc2nc(-c3cnn(C)c3)cc(-c3ccccc3)c2c1N (configuration not stated) [US20240043440, Example 24]",3
11,"CCCC[S+]([O-])c1sc2nc(-c3nccs3)nc(-c3cccnc3)c2c1N (configuration not stated) [US20240043440, Example 26]",20

# Target: T1, 15-hydroxyprostaglandin dehydrogenase [NAD(+)]
# Experiment: In vitro Assay (1 nM)
# Procedure: Each compound for inhibiting enzymatic activity of recombinant 15-PGDH (1 nM) in an in vitro assay.
row,Compound,IC50 [nM]
1,"CCOCC[S+]([O-])c1sc2nc(-c3nccs3)cc(-c3cncn3C)c2c1N (configuration not stated) [US20240043440, Example 31]",1.8
2,"Cn1cncc1-c1cc(-c2nccs2)nc2sc([S+]([O-])C3CCCC3)c(N)c12 (configuration not stated) [US20240043440, Example 32]",1.6
3,"Cn1cncc1-c1cc(-c2nccs2)nc2sc([S+]([O-])C3CCCCC3)c(N)c12 (configuration not stated) [US20240043440, Example 33]",1.6
4,"CCOCC[S+]([O-])c1sc2nc(-c3nccs3)cc(-c3cnc(C)n3C)c2c1N (configuration not stated) [US20240043440, Example 34]",3.1
5,"Cc1ncc(-c2cc(-c3nccs3)nc3sc([S+]([O-])CC(C)C)c(N)c23)n1C (configuration not stated) [US20240043440, Example 35]",3.6
6,"COCC[S+]([O-])c1sc2nc(-c3nccs3)cc(-c3cncn3C)c2c1N (configuration not stated) [US20240043440, Example 36]",1.5
7,"COCCC[S+]([O-])c1sc2nc(-c3nccs3)cc(-c3cncn3C)c2c1N (configuration not stated) [US20240043440, Example 37]",1.8
8,"CCCC[S+]([O-])c1sc2nc(-c3cccnc3)cc(-c3cnc(C)n3C)c2c1N (configuration not stated) [US20240043440, Example 38]",1.4
9,"CCCC[S+]([O-])c1sc2nc(-c3cncnc3)cc(-c3cnc(C)n3C)c2c1N (configuration not stated) [US20240043440, Example 39]",1.2
10,"CCCC[S+]([O-])c1sc2nc(-c3ccccn3)cc(-c3cnc(C)n3C)c2c1N (configuration not stated) [US20240043440, Example 40]",2.4
11,"CCCC[S+]([O-])c1sc2nc(-c3cccnc3)cc(-c3cncn3C)c2c1N (configuration not stated) [US20240043440, Example 43]",1.1
12,"CCCC[S+]([O-])c1sc2nc(-c3ncccn3)cc(-c3ccccc3)c2c1N (configuration not stated) [US20240043440, Example 44]",1.7
13,"CCCC[S+]([O-])c1sc2nc(-c3ncccc3F)cc(-c3cnc(C)n3C)c2c1N (configuration not stated) [US20240043440, Example 45]",2.2
14,"CCCC[S+]([O-])c1sc2nc(-c3ccncn3)cc(-c3ccccc3)c2c1N (configuration not stated) [US20240043440, Example 47]",1.1
15,"COCC[S+]([O-])c1sc2nc(-c3cccnc3)cc(-c3cncn3C)c2c1N (configuration not stated) [US20240043440, Example 49]",1.8
16,"COCCC[S+]([O-])c1sc2nc(-c3cccnc3)cc(-c3cncn3C)c2c1N (configuration not stated) [US20240043440, Example 50]",1.4
17,"CCCC[S+]([O-])c1sc2nc(-c3cccnc3)cc(-c3nccs3)c2c1N (configuration not stated) [US20240043440, Example 51]",1
18,"CCCC[S+]([O-])c1sc2nc(-c3cncnc3)cc(-c3cnc(C4CC4)n3C)c2c1N (configuration not stated) [US20240043440, Example 53]",2.6
19,"CCCC[S+]([O-])c1sc2nc(-c3cccnc3)cc(-c3cccnc3)c2c1N (configuration not stated) [US20240043440, Example 54]",0.82

row,Compound,IC50 [nM]
1,"CCCC[S+]([O-])c1sc2nc(-c3cccnc3)cc(-c3ccccc3F)c2c1N (configuration not stated) [US20240043440, Example 55]",1
2,"CCCC[S+]([O-])c1sc2nc(-c3cnccc3C)cc(-c3cnc(C)n3C)c2c1N (configuration not stated) [US20240043440, Example 56]",2.2
3,"CCCC[S+]([O-])c1sc2nc(-c3cccnc3)cc(-c3cccc(C#N)c3)c2c1N (configuration not stated) [US20240043440, Example 57]",1.1
4,"CCCC[S+]([O-])c1sc2nc(-c3cccnc3)cc(-c3ccccn3)c2c1N (configuration not stated) [US20240043440, Example 58]",1.2
5,"CCCC[S+]([O-])c1sc2nc(-c3cccnc3)cc(-c3ccc(C#N)cc3)c2c1N (configuration not stated) [US20240043440, Example 59]",0.91
6,"CCCC[S+]([O-])c1sc2nc(-c3cnc(NC)nc3)cc(-c3ccccc3)c2c1N (configuration not stated) [US20240043440, Example 60]",1.4
7,"CCCC[S+]([O-])c1sc2nc(-c3cnc(N)nc3)cc(-c3ccc(F)cc3)c2c1N (configuration not stated) [US20240043440, Example 61]",1.1
8,"CCCC[S+]([O-])c1sc2nc(-c3ccc(N)nc3)cc(-c3ccccc3)c2c1N (configuration not stated) [US20240043440, Example 62]",1.5
9,"CCCC[S+]([O-])c1sc2nc(-c3cnc(N(C)C)nc3)cc(-c3ccccc3)c2c1N (configuration not stated) [US20240043440, Example 63]",1.7
10,"COCCC[S+]([O-])c1sc2nc(-c3cnc(N)nc3)cc(-c3ccccc3)c2c1N (configuration not stated) [US20240043440, Example 65]",1.1
11,"COCCC[S+]([O-])c1sc2nc(-c3cnn(C)c3)cc(-c3ccccc3)c2c1N (configuration not stated) [US20240043440, Example 66]",1.4
12,"CCCC[S+]([O-])c1sc2nc(-c3cnc(N)nc3)cc(-c3nccs3)c2c1N (configuration not stated) [US20240043440, Example 69]",1.1
13,"COCCC[S+]([O-])c1sc2nc(-c3cnco3)cc(-c3ccccc3)c2c1N (configuration not stated) [US20240043440, Example 70]",0.88
14,"CCCC[S+]([O-])c1sc2nc(-c3cccnc3)cc(-c3ccncc3)c2c1N (configuration not stated) [US20240043440, Example 71]",0.98
15,"CCCC[S+]([O-])c1sc2nc(-c3cnc(N)nc3)cc(-c3cnc(C)n3C)c2c1N (configuration not stated) [US20240043440, Example 72]",0.93
16,"CCCC[S+]([O-])c1sc2nc(-c3cccnc3)cc(-c3ncsc3C)c2c1N (configuration not stated) [US20240043440, Example 73]",1
17,"CCCC[S+]([O-])c1sc2nc(-c3cccnc3)nc(-c3ccccc3)c2c1N (configuration not stated) [US20240043440, Example 74]",1.2
18,"CCCC[S+]([O-])c1sc2nc(-c3cnn(C)c3)cnc2c1N (configuration not stated) [US20240043440, Example 75]",2.8
19,"CCCC[S+]([O-])c1sc2nc(-c3ccccn3)nc(-c3ccccc3)c2c1N (configuration not stated) [US20240043440, Example 76]",3.6

row,Compound,IC50 [nM]
1,"CCCC[S+]([O-])c1sc2nc(-c3nccs3)nc(-c3nccn3C)c2c1N (configuration not stated) [US20240043440, Example 77]",1.8
2,"COCCC[S@@+]([O-])c1sc2nc(-c3cccnc3)nc(-c3ccccc3)c2c1N [US20240043440, Example 78-A]",1
3,"COCCC[S+]([O-])c1sc2nc(-c3cccnc3)nc(-c3ccccc3)c2c1N (configuration not stated) [US20240043440, Example 78]",1.4
4,"COCC[S@@+]([O-])c1sc2nc(-c3cccnc3)nc(-c3ccccc3)c2c1N [US20240043440, Example 79-A]",1
5,"COCC[S+]([O-])c1sc2nc(-c3cccnc3)nc(-c3ccccc3)c2c1N (configuration not stated) [US20240043440, Example 79]",1.5
6,"CCCC[S+]([O-])c1sc2nc(-c3ncccn3)nc(-c3ccccc3)c2c1N (configuration not stated) [US20240043440, Example 80]",12
7,"CCCC[S+]([O-])c1sc2nc(-c3cccnc3)nc(-c3cscn3)c2c1N (configuration not stated) [US20240043440, Example 81]",0.76
8,"CCCC[S+]([O-])c1sc2nc(-c3cccnc3)nc(-c3nccs3)c2c1N (configuration not stated) [US20240043440, Example 82]",1
9,"CCCC[S+]([O-])c1sc2nc(-c3cncnc3)nc(-c3ccccc3)c2c1N (configuration not stated) [US20240043440, Example 83]",1.3
10,"CCCC[S+]([O-])c1sc2nc(-c3cccnc3)nc(-c3cncn3C)c2c1N (configuration not stated) [US20240043440, Example 84]",1.2
11,"CCCC[S+]([O-])c1sc2nc(-c3cccnc3)nc(-c3cn(C)cn3)c2c1N (configuration not stated) [US20240043440, Example 85]",1.3
12,"CCCC[S@@+]([O-])c1sc2nc(-c3cccnc3)nc(-c3nccn3C)c2c1N [US20240043440, Example 86A]",0.56
13,"CCCC[S@+]([O-])c1sc2nc(-c3cccnc3)nc(-c3nccn3C)c2c1N [US20240043440, Example 86B]",41
14,"CCCC[S+]([O-])c1sc2nc(-c3cccnc3)nc(-c3nccn3C)c2c1N (configuration not stated) [US20240043440, Example 86]",1.1
15,"COCCC[S@@+]([O-])c1sc2nc(-c3cccnc3)nc(-c3ccc(F)cc3)c2c1N [US20240043440, Example 87A]",1.3
16,"COCCC[S+]([O-])c1sc2nc(-c3cccnc3)cc(-c3cn(C)cn3)c2c1N (configuration not stated) [US20240043440, Example 89]",1.3
17,"COCCC[S+]([O-])c1sc2nc(-c3ccc(N)nc3)cc(-c3cccnc3)c2c1N (configuration not stated) [US20240043440, Example 90]",2.5
18,"COCC[S+]([O-])c1sc2nc(-c3ccc(C4COC4)nc3)cc(-c3ccc(F)cc3)c2c1N (configuration not stated) [US20240043440, Example 91]",2.4
